In data set [1] the test system is Human Rhinovirus 16 (HRV16) in H1-HeLa cells. The data set is described as follows: H1-HeLa HRV-CTG 384-well Assay (Ex. Y), HRV16. As to conditions: Rhinovirus A, 96 h; H1-HeLa cells, HRV16 MOI 0.25, 4 days, Celltiter-Glo; read-out: EC50 H1-HeLa_HRV16_HRV-CTG 384-well Assay (per Ex. Y). The class given is cell-based. Background: Cellular ATP, detected with luciferase, serves as a proxy for viable cell number.

Data set [2] deals with Human Rhinovirus 14 (HRV14) in H1-HeLa cells. The data set can be described thus: H1-HeLa HRV-CTG 384-well Assay (Ex. Y), HRV14. The format is cell-based. As to conditions: Rhinovirus B, 96 h; H1-HeLa cells, HRV14 MOI 1.0, 4 days, Celltiter-Glo; read-out: EC50 H1-HeLa_HRV14_HRV-CTG 384-well Assay (per Ex Y).
Data set [3] deals with Human Rhinovirus 1B (HRV1B) in H1-HeLa cells. The data set is described as follows: H1-HeLa HRV-CTG 384-well Assay (Ex. Y), HRV1B. As to conditions: Rhinovirus A, 96 h; H1-HeLa cells, HRV1B MOI 0.5, 4 days, Celltiter-Glo; read-out: EC50 H1-HeLa_HRV1B_HRV-CTG 384-well Assay (per Ex. Y). The class given is cell-based.
The nature of data set [4]: GI S9 stability (Ex. Z), rat intestinal S9. The format is in vitro ADME. As to conditions: pooled intestinal S9 fractions; rat intestinal S9, 1.0 mg/mL protein, 2 μM substrate, pH 7.4; read-out: GIS9 Rat T½ (per Ex. Z). The method, boiled down: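 Pooled intestinal S9 at 1.0 mg/mL protein in PBS, pH 7.4, with substrate at 2 μM final, sampled at 0–120 min and quenched in methanol/acetonitrile containing labetalol. Remaining parent quantified by LC-MS peak area ratio. Half-life from first-order exponential decline fit.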

pEC50: −log10 of the molar value.

With `N#C[C@]1(COC(=O)C2CCCC2)O[C@@H](c2ccc3c(N)ncnn23)[C@H](O)[C@@H]1O` [Compound 18, ((2R,3S,4R,5S)-5-(4-aminopyrrolo[2,1-f][1,2,4]triazin-7-yl)-2-cyano-3,4-dihydroxytetrahydrofuran-2-yl)methyl cyclopentanecarboxylate], the pEC50 (in general, the negative decadic logarithm of the EC50, by convention in mol/L) was 5.10 in data set [1], 5.16 in data set [2] and 5.52 in data set [3]. Moreover, the half-life at 2 μM in data set [4] was determined as 3 min.

Turning to `CC1(CC(=O)OC[C@@]2(C#N)O[C@@H](c3ccc4c(N)ncnn34)[C@H](O)[C@@H]2O)CCC1` [Compound 33, ((2R,3S,4R,5S)-5-(4-aminopyrrolo[2,1-f][1,2,4]triazin-7-yl)-2-cyano-3,4-dihydroxytetrahydrofuran-2-yl)methyl 2-(1-methylcyclobutyl)acetate], the pEC50 in data set [1] is 4.30; in data set [2], 4.68; in data set [3] it was 4.45. Further, in data set [4], the half-life at 2 μM amounted to 31 min.

The values are drawn from US20240199676A1, “ANTIVIRAL COMPOUNDS AND METHODS OF MAKING AND USING THE SAME” (Gilead Sciences, Inc., priority 2022, published 2024).
